# In paper PMC5666006, “Combating virulence of Gram-negative bacilli by OmpA inhibition” (Scientific Reports, 2017):
# Where a SMILES comes first, the peptide text is derived from it. [ ]: non-standard residue; d: D form.
# Columns and labels:
# A. baumannii ATCC 17978 = type: cell-based
# Description: (§1) In the initial screening, the bactericidal activity of the synthetic peptides and their toxicity on human lung epithelial cells (A549) were evaluated.
# (§2) Table S1. MICs of the six hexapeptides for A. baumannii and E. coli.
# (§3) Peptides P. aeruginosa PaO1
# (§4) MIC: minimal inhibitory concentration
# E. coli ATCC 25922 = type: cell-based
# Description: as §1, §2, §3, §4
# P. aeruginosa PaO1 = type: cell-based
# Description: as §1, §2, §3, §4
# [1] = Peptide toxicity, MTT assay; type: cell-based, human; conditions: human, A549 cells
# Description: (§5) Human type II pneumocyte cell line A549 derived from a human lung carcinoma were obtained from American Type Culture Collection (LGC, UK) and were grown in DMEM medium (Invitrogen, Spain) supplemented with 10% heat-inactivated fetal bovine serum, vancomycin (50 μg/mL), gentamicin (20 μg/mL), amphotericin B (0.25 μg/mL) (Invitrogen, Spain) and 1% HEPES (Invitrogen, Spain) in a humidified incubator, 5% CO2 at 37 °C. A549 cells were routinely passaged every 3–4 days. The cells were seeded 24 h in 96-well plates for cellular viability assay, and in 24 well plates for adhesion and immnunofluorescence assays.
# (§6) Peptide toxicity. […] Prior the evaluation of the peptides cytotoxicity, A549 cells were washed three times with prewarmed PBS. Then, peptides cytotoxicity was initially assessed quantitatively by monitoring the mitochondrial reduction activity using the MTT assay as described previously. The percentage of […] was calculated from the optical density (OD) as follow: [(OD of treated cells / mean OD of non-treated cell) × 100].
# (§7) Table S2. Percentages of A549 cellular viability assessed through mitochondrial reduction
# (§8) activity (MTT assay) in presence of anti-OmpA hexapeptides and control peptides (SXV4 and
# (§9) COL). COL: colistin. ND: not determined.
# (§10) Peptides 0.25 mg/mL 0.5 mg/mL 1 mg/mL 5 mg/mL
# A549 cells = assay: Peptide toxicity, MTT assay; type: cell-based, human; conditions: 48 h, MTT, mean ± SEM
# Description: as §5, §6, §7, §8, §9, §10
Molecule,MIC (A. baumannii ATCC 17978),MIC (E. coli ATCC 25922),MIC (P. aeruginosa PaO1),"viability at 48 h, 250 µg/mL [1]","viability at 48 h, 500 µg/mL [1]","viability at 48 h, 1000 µg/mL [1]","Cellular viability (%) (A549 cells; A549, 0.5 mg/mL)","Cellular viability (%) (A549 cells; A549, 1 mg/mL)","Cellular viability (%) (A549 cells; A549, 5 mg/mL)"
N=C(N)NCCC[C@@H]1NC(=O)[C@H](Cc2c[nH]c3ccccc23)NC(=O)[C@H]2CCCN2C(=O)[C@H](CCCNC(=N)N)NC(=O)[C@H](Cc2c[nH]c3ccccc23)NC(=O)[C@H]2CCCN2C1=O [AOA-1] (cyclo(R[dP]WR[dP]W)),> 500 µg/mL,> 500 µg/mL,> 500 µg/mL,98.89 ± 0.41%,99.69 ± 0.26%,99.7 ± 0.38%,–,–,–
N=C(N)NCCC[C@@H]1NC(=O)[C@@H](Cc2c[nH]c3ccccc23)NC(=O)[C@@H]2CCCN2C(=O)[C@H](CCCNC(=N)N)NC(=O)[C@@H](Cc2c[nH]c3ccccc23)NC(=O)[C@@H]2CCCN2C1=O [AOA-3] (cyclo(P[dW]RP[dW]R)),> 500 µg/mL,> 500 µg/mL,> 500 µg/mL,99.27 ± 0.21%,99.7 ± 0.14%,99.36 ± 0.3%,–,–,–
N=C(N)NCCC[C@H]1NC(=O)[C@H](Cc2c[nH]c3ccccc23)NC(=O)[C@@H]2CCCN2C(=O)[C@@H](CCCNC(=N)N)NC(=O)[C@H](Cc2c[nH]c3ccccc23)NC(=O)[C@@H]2CCCN2C1=O [AOA-4] (cyclo(PW[dR]PW[dR])),> 500 µg/mL,> 500 µg/mL,> 500 µg/mL,99.47 ± 0.39%,99.77 ± 0.17%,100.1 ± 0.18%,–,–,–
O=C1N[C@@H](CO)C(=O)N2CCC[C@@H]2C(=O)N[C@@H](Cc2c[nH]c3ccccc23)C(=O)N[C@@H](CO)C(=O)N2CCC[C@@H]2C(=O)N[C@H]1Cc1c[nH]c2ccccc12 [AOA-5] (cyclo(S[dP]WS[dP]W)),> 500 µg/mL,> 500 µg/mL,> 500 µg/mL,98.86 ± 0.08%,100 ± 0.39%,100.1 ± 0.46%,–,–,–
O=C(O)CC[C@@H]1NC(=O)[C@H](Cc2c[nH]c3ccccc23)NC(=O)[C@H]2CCCN2C(=O)[C@H](CCC(=O)O)NC(=O)[C@H](Cc2c[nH]c3ccccc23)NC(=O)[C@H]2CCCN2C1=O [AOA-6] (cyclo(E[dP]WE[dP]W)),> 500 µg/mL,> 500 µg/mL,> 500 µg/mL,98.31 ± 0.35%,99.14 ± 0.44%,99.38 ± 0.34%,–,–,–
CC(=O)N[C@@H](Cc1c[nH]c2ccccc12)C(=O)N1CCC[C@@H]1C(=O)N[C@@H](CCCNC(=N)N)C(=O)N[C@@H](Cc1c[nH]c2ccccc12)C(=O)N1CCC[C@@H]1C(=O)N[C@@H](CCCNC(=N)N)C(=O)O [SXV4] (Ac-W[dP]RW[dP]R-OH),> 500 µg/mL,> 500 µg/mL,> 500 µg/mL,98.17 ± 0.6%,98.79 ± 0.28%,98.55 ± 0.21%,–,–,–
colistin [reference compound],–,–,–,–,–,–,91.85 ± 2.67%,68.39 ± 2.93%,9.88 ± 0.42%
